Experimental data published in publication PMC5994430, “Mitochondrial Delivery of Phenol Substructure Triggers Mitochondrial Depolarization and Apoptosis of Cancer Cells” (Frontiers in Pharmacology, 2018).

Columns and labels:
A549 cells [1] = experiment: Mitochondrial/cytosolic distribution by LC-ESI-MS; assay type: cell-based, Human; settings: for intracellular hydrolysis of the ester to the parent phenol: 4 h incubation, 0.1 and 1 μM; for penetration into cells / intracellular concentration after direct incubation: A549, 4 h incubation with 0.1 and 1 μM; for mitochondrial vs cytosolic distribution after incubation with 2: 4 h incubation with 0.1 and 1 μM of 2; for cytosolic concentration of 15 after incubation with 1: cytosolic fraction
Method: (§1) Mitochondria were isolated as reported ([Riganti et al., 2013a]). To isolate mitochondrial fractions, 5 × 10^6 cells were washed twice in ice-cold PBS, then lysed in 0.5 ml buffer A (50 mM Tris, 100 mM KCl, 5 mM MgCl2, 1.8 mM ATP, 1 mM EDTA; pH 7.2), supplemented with protease inhibitor cocktail III (Calbiochem. La Jolla, CA, United States), 1 mM phenylmethylsulfonyl fluoride and 250 mM NaF. Samples were clarified by centrifuging at 650 × g for 3 min at 4°C. The supernatant was collected and centrifuged at 13,000 × g for 5 min at 4°C. This supernatant, containing the cytosolic fraction, was stored at -80°C until the use. The pellet containing mitochondria was washed in 0.5 ml buffer A and re-suspended in 0.25 ml buffer B (250 mM sucrose, 15 mM K2HPO4, 2 mM MgCl2, 0.5 mM EDTA, 5% w/v, BSA). A 50 μl aliquot was sonicated and used for the measurement of protein content or Western blotting; the remaining part was stored at -80°C until the use. To confirm the presence of mitochondrial proteins in the extracts and the absence of cytosolic contamination in the mitochondrial fraction, 10 μg of each sonicated sample were subjected to SDS–PAGE and probed with an anti-porin antibody (Abcam, Cambridge, United Kingdom), a mitochondrial marker, and with an anti-glyceraldehyde 3-phosphate dehydrogenase antibody (GAPDH; Santa Cruz Biotechnology Inc., Santa Cruz, CA, United States), a cytosolic marker. Mitochondrial extracts were used only if they had detectable levels of porin and undetectable levels of GAPDH. To exclude any mitochondrial contamination in the cytosolic extracts, the absence of porin and the presence of GAPDH in the latter was analyzed by Western blotting (Supplementary Figure S1). Nuclear proteins were extracted using the Nuclear Extract Kit (Active Motif, La Hulpe, Belgium). 10 μg of nuclear extracts were subjected to SDS–PAGE and probed with antibodies against: proliferator-activated receptor gamma coactivator 1-α (PGC-1α; Abcam), an index of increased mitochondrial biogenesis ([Buondonno et al., 2016]), or TATA box Binding Protein (TBP; Santa Cruz Biotechnology Inc.), as control of equal protein loading.
(§2) The amount of 1, 2, 15, and 16 in the mitochondrial and cytosolic fractions was determined by LC-ESI-MS analyses. LC-ESI-MS analyses were performed with an Acquity Ultra Performance LC^TM (Waters Corporation, Milford, MA, United States), equipped with BSM, SM, CM, and PDA detector. All the chromatographic separations were performed on a Zorbax Eclipse XDB-C18 (5 μm, 150 mm × 4.6 mm) (Agilent Technologies) as a stationary phase. The supernatant samples obtained from incubation were filtered through a 0.45 μm pore size PTFE membrane filter before use. Aliquots (5 μl) were injected onto the system and eluted with a mobile phase (flow rate, 0.5 ml/min) consisting of A, 0.1% formic acid solution, and B, acetonitrile. The following gradient was used: 0–5 min (A = 50%, B = 50%), 5–7 min (to A = 20%, B = 80%), 7–8 min (A = 20%, B = 80%), 8–10 min (to A = 50%, B = 50%). The eluate was injected into the electrospray ion source (ESI), and monitored using Micromass Quattro microTM API ESCi multi-mode ionization Enabled as detector. MS spectra were acquired and processed using MassLynx software. The operating conditions on the triple quadruple mass spectrometer were as follows: positive mode; drying gas (nitrogen) heated at 350°C at a flow rate of 800 l/h; nebulizer gas (nitrogen) at 80 l/h; capillary voltage in positive mode at 3000 V; cone voltage at 30 V. The molecular ion [M]^+ was employed for quantitative measurements of analytes. The values obtained from integration of the peak of compounds were interpolated in a calibration curve obtained using standard solutions at 0.01 to 5 μM. The amount of each compound in the mitochondrial and cytosolic fractions was expressed as pmol/mg proteins.
(§3) FIGURE 5 Intra-mitochondrial and cytosolic accumulation of TPP-derivatives. […]

BEAS-2B cells [2] = experiment: Mitochondrial/cytosolic distribution by LC-ESI-MS; assay type: cell-based, Human; settings: 4 h incubation with 0.1 and 1 μM
Method: as §1, §2, §3

[3] = Lipophilicity, shake-flask n-octanol/PBS pH 7.4; assay type: physicochemical; settings: n-octanol/50 mM PBS pH 7.4, shake-flask, room temperature, at least six measurements
Method: The partition coefficient between n-octanol and PBS at pH 7.4 (log P) was obtained by shake-flask technique at room temperature. In the shake flask experiments 50 mM PBS pH 7.4 was used as aqueous phase; the organic (n-octanol) and aqueous phase (PBS) were mutually saturated by shaking for 4 h. The compounds were solubilised in the buffered aqueous phase at a concentration of 30 μg/ml and appropriate amounts of n-octanol were added. The two phases were shaken for about 20 min, by which time the partitioning equilibrium of solutes is reached, and then centrifuged (10000 rpm, 10 min). The concentration of the solutes was measured in the aqueous phase by UV spectrophotometer (UV-2501PC, Shimadzu); the values of absorbance (223, 268 and 275 nm) were interpolated in calibration curves obtained using standard solutions of compounds (concentration range 30–0.5 μg/ml; r^2 > 0.99). Each log P-value is an average of at least six measurement.

BEAS-2B cells [4] = experiment: Cell viability (neutral red); assay type: cell-based, Human; settings: for IC50: Homo sapiens, BEAS-2B normal bronchial epithelial cells, cell viability, CompuSyn; for cell viability: BEAS-2B, 0.1, 1 or 10 μM, 72 h
Source text: (§4) Human colon cancer HT29 cells, colon-derived normal fibroblast CCD-18Co cells, lung cancer A549 cells, normal human bronchial epithelial (immortalized with adenovirus 12-SV40 virus hybrid Ad12SV40) BEAS-2B cells, breast cancer MDA-MB-231 cells, normal breast epithelial MCF10A cells, human osteosarcoma U-2OS cells were purchased from ATCC (Manassas, VA, United States). […] All subjects gave written informed consent in accordance with the Declaration of Helsinki. Cells were maintained in medium supplemented with 10% v/v fetal bovine serum, 1% v/v penicillin-streptomycin, 1% v/v L-glutamine. Morphological analysis was performed with a bright field microscope (Leica Microsystems, Wetzlar, Germany). At least 5 fields/experimental condition were examined.
(§5) LDH activity was measured in the extracellular medium and in the cell lysate: 50 μl of extracellular medium or 5 μl of cell lysate were incubated at 37°C with 5 mM NADH. The reaction was started by adding 20 mM pyruvic acid and was monitored for 6 min, measuring absorbance at 340 nm using a Synergy HT Multi-Detection Microplate Reader (Bio-Tek Instruments, Winoosky, MT, United States). […] Both intracellular and extracellular enzyme activities were expressed as μmol NADH oxidized/min/dish. The results were expressed as percentage of extracellular LDH versus total (intracellular plus extracellular) LDH. […] The absorbance of untreated cells was considered as 100% viability; the results were expressed as percentage of viable cells versus untreated cells. IC50 was calculated with the CompuSyn software^1.

A549 cells [5] = experiment: Cell viability (neutral red); assay type: cell-based, Human; settings: for IC50: cell viability, CompuSyn; for cell viability: A549, 0.1, 1 or 10 μM, 72 h
Source text: as §4, §5

SMILES	intracellular hydrolysis of the ester to the parent phenol (A549 cells [1])	penetration into cells (A549 cells [1])	concentration in BEAS-2B cells compared with A549 cells (BEAS-2B cells [2])	logP [3]	IC50 (BEAS-2B cells [4]) [µM]	mitochondrial vs cytosolic distribution after incubation with 2 (A549 cells [1])	IC50 (A549 cells [5]; A549 lung cancer cells) [µM]	IC50 (A549 cells [5]; Homo sapiens, A549, A549 lung cancer cells) [µM]	cytosolic concentration of 15 after incubation with 1 (A549 cells [1]; 4 h incubation with 0.1 μM of 1)	mitochondrial accumulation of 15 after incubation with 1 (A549 cells [1]; 4 h incubation with 0.1 μM of 1, mitochondrial fraction)	cytosolic concentration of 15 after incubation with 1 (A549 cells [1]; 4 h incubation with 1 μM of 1)	intracellular concentration after direct incubation (A549 cells [1])	intracellular concentration after direct incubation (BEAS-2B cells [2])	cell viability (A549 cells [5])	cell viability (BEAS-2B cells [4])
CC(=O)Oc1ccc(C[P+](c2ccccc2)(c2ccccc2)c2ccccc2)cc1.[Br-] [Compound 1]	fast hydrolysis into phenol 15	penetrate in good extent	at least ten fold lower	0.64	5.26 ± 0.25	–	–	–	–	–	–	–	–	–	–
O=C(Oc1ccc(C[P+](c2ccccc2)(c2ccccc2)c2ccccc2)cc1C(F)(F)F)c1ccccc1.[Br-] [Compound 2]	more stable with respect to acetate	penetrate in good extent	at least ten fold lower	3.15	7.36 ± 0.45	accumulate almost exclusively at mitochondrial level	0.55 ± 0.07	< 1	–	–	–	–	–	–	–
Oc1ccc(C[P+](c2ccccc2)(c2ccccc2)c2ccccc2)cc1.[Br-] [Compound 15]	–	–	–	0.5	–	–	–	–	below detection limit	easily detectable	very low	very low	very low	nor reduced cell viability	nor reduced cell viability
Oc1ccc(C[P+](c2ccccc2)(c2ccccc2)c2ccccc2)cc1C(F)(F)F.[Br-] [Compound 16]	–	–	–	1.02	–	accumulate almost exclusively at mitochondrial level	–	–	–	–	–	very low	very low	nor reduced cell viability	nor reduced cell viability
